This is an account of results in patent US20120288443A1, “LABELLED PYRROLYL-OXADIAZOLYL-DIAZABICYCLONONANE DERIVATIVES AND THEIR USE IN DIAGNOSTIC METHODS” (N[…]/S, priority 2009, published 2012).

Series [1] in a line: PET scan of brain uptake and distribution after i.v. bolus injection. Conditions: pig, 90 minutes HRRT PET scan. The format is in vivo, Danish Landrace pigs. The protocol: Five Danish Landrace pigs were PET scanned in a high-resolution research tomography (HRRT) scanner after i.v. bolus injection of Compound 1 at t=0 mins. Points and connecting line indicate regional radioactive concentration normalized to injected dose per kg body weight, i.e. standardized uptake values (SUV).
(§1) Compound 1 was given as an intravenous bolus injection to a total of five Danish Landrace pigs, and the pigs were subsequently scanned for 90 minutes in a high resolution research tomography (HRRT) PET scanner. Hereafter, the pigs were re-scanned after pre-treatment with cold ligand, either Compound 1 (10 mg/kg, iv) or SSR180711 (1 mg/kg or 10 mg/kg, iv).
Pre-treatment with Compound 1 and SSR180711 lead to a decline in the distribution volumes (VT) of Compound 1 as determined with logan plot kinetic modelling.

In series [2] the target is T1, nicotinic α7 acetylcholine receptor (Sus scrofa, UniProt F1SNR6). Put plainly: Receptor occupancy by PET (occupancy plotting of logan plot VT) after pre-treatment with cold ligand. Also noted: nicotinic α7 acetylcholine receptor in the pig brain; from tissue; host or cells: brain of living Danish Landrace pigs (in vivo PET). The format is in vivo, Danish Landrace pigs. The conditions noted are these: for occupancy of nicotinic α7 acetylcholine receptors: pre-treatment 10 mg/kg iv Compound 1 (cold ligand). The protocol: as §1

In series [3] the target is T1, nicotinic α7 acetylcholine receptor. Put plainly: Distribution volumes (VT) of Compound 1 in pig brain by PET, baseline vs pre-treatment. Conditions: for change of distribution volume (VT) of Compound 1 tracer following pre-treatment: pig brain, Logan plot kinetic modelling, pre-treatment 10 mg/kg Compound 1 or 1 or 10 mg/kg SSR180711 i.v. The format is in vivo. Also noted: nicotinic α7 acetylcholine receptor in the pig brain; from tissue; host or cells: brain of living pigs (in vivo PET). The protocol:
The distribution volumes are determined in the pig brain at baseline, or following pre-treatment with either Compound 1 or SSR180711.
Five pigs were PET scanned at baseline with Compound 1 in the HRRT scanner. Subsequently, the pigs were administered either 10 mg/kg Compound 1 or SSR180711 (1 mg/kg or 10 mg/kg, i.v.), and 30 minutes or 4 hours later, the pigs were scanned a second time using the same PET protocol.
VT is a measure of concentrations of Compound 1 in a given region relative to the plasma concentration. VT was calculated by kinetic modelling using Logan plot linearization. All kinetic modelling was done in PMOD version 3.0 (PMOD technologies, Inc.).

T1 sequence (F1SNR6 20-499): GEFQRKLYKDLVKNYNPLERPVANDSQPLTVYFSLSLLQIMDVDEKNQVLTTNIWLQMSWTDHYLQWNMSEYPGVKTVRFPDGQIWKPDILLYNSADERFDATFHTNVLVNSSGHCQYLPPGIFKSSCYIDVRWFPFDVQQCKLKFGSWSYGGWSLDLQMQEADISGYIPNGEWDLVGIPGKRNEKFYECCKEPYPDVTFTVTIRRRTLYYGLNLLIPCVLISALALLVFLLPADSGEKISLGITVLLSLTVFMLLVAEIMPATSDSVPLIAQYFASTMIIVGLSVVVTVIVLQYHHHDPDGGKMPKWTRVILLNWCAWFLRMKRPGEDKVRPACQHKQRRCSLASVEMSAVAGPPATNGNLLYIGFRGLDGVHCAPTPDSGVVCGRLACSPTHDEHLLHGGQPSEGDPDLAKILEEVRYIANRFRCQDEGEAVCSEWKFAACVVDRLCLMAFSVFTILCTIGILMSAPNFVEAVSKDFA

Turning to “2-(1,4-Diazabicyclo[3.2.2]nonan-4-yl)-5-(1-[^11C]methylpyrrol-2-yl)-1,3,4-oxadiazole [Compound 1]”, in series [1], the “brain entry and regional distribution” value was “entered into the pig brain, and the distribution was mainly found in the cerebral cortex and the thalamus”. Moreover, the “occupancy of nicotinic α7 acetylcholine receptors” value worked out at 43% in series [2] (inter-scan interval 4 hours) and 81% in series [2] (second scan 30 minutes after pre-treatment). Moreover, in series [3] (concluded from VT decrease after pre-treatment), the “binding to nicotinic α7 acetylcholine receptor in the pig brain” value is “binds specifically and selectively”. Besides, the “change of distribution volume (VT) of Compound 1 tracer following pre-treatment” value in series [3] is “decreased”.

As for `O=C(Oc1ccc(Br)cc1)N1CCN2CCC1CC2` [SSR180711, 1,4-Diazabicyclo[3.2.2]nonane-4-carboxylic acid, 4-bromophenyl ester], the receptor occupancy at 1 mg/kg in series [2] (pig, iv, pre-treatment 1 mg/kg iv SSR180711, tracer Compound 1, read-out: occupancy of nicotinic α7 acetylcholine receptor in the pig brain) is 52%. For the same molecule, in series [2] (pig, iv, pre-treatment 10 mg/kg iv SSR180711, tracer Compound 1, two values 'respectively', read-out: occupancy of nicotinic α7 acetylcholine receptor in the pig brain), the receptor occupancy at 10 mg/kg worked out at 70%. Besides, in series [2] (pre-treatment 10 mg/kg iv SSR180711, tracer Compound 1, two values 'respectively'), the “occupancy of nicotinic α7 acetylcholine receptor in the pig brain” value was found to be 59%. In addition, the “change of distribution volume (VT) of Compound 1 tracer following pre-treatment” value in series [3] is reported as “decreased”.
